In patent US12383624B2, “Cargo delivery system and composition comprising the same” (SEOUL NATIONAL UNIVERSITY R&DB FOUNDATION, priority 2018, dated 2025):
One block for each molecule: values may come before it.

Experiments:
BRD4 = assay: target protein degradation by immunoblotting (Experimental Example 6); format: cell-based, human, mouse; details: HEK293T, LNcap and MEF cell lines, 24 hours
Description: (§1) In order to evaluate the target proteion degradation efficacy by Examples 14 to 33 according the disclosure, the following experiment was conducted.
(§2) First, as cell lines primarily expressing the target protein, Human kidney-derived cancer cells, HEK293T (ATCC, CRL-3216), human prostate-derived cancer cells, LNcap (Korean Cell Line Bank, Korean Cell Line Research Foundation, KCLB No. 80018), mouse embryonic fibroblast, MEF (ATCC, SCRC-1008), human cervical cancer cells, HeLa (Korean Cell Line Bank, Korean Cell Line Research Foundation, KCLB No. 10002), human blood-derived cells, K562 (Korean Cell Line Bank, Korean Cell Line Research Foundation, KCLB No. 10243), human blood-derived cells, THP-1 (Korean Cell Line Bank, Korean Cell Line Research Foundation, KCLB No. 40202), human lung-derived cancer cells, A549 (Korean Cell Line Bank, Korean Cell Line Research Foundation, KCLB No. 10185), human breast-derived cancer cells, MCF7 (Korean Cell Line Bank, Korean Cell Line Research Foundation, KCLB No. 30022), human neuroblastoma, SH-SY5Y cell lines (Korean Cell Line Bank, Korean Cell Line Research Foundation, KCLB No. 22266), human pancreatic cancer cells, PANC-1 (Korean Cell Line Bank, Korean Cell Line Research Foundation, KCLB No. 21469) were cultured, respectively, in an incubator maintained at 5% carbon dioxide, using DMEM containing 10% FBS and 1% streptomycin/penicillin, RPMI1640, or MEM medium, and then the respective cells were dispensed in 12-well plate. Additional incubation was performed for 24 hours to ensure that each cell completely fixed to the surface of the plate.
(§3) In order to confirm whether Compounds A to W of Examples 14 to 33 degrade the target protein respectively, the cultured cells were treated with the compound of each example for 24 hours and then collected.
(§4) In this case, HEK293T, which is human kidney-derived cancer cells, LNcap, which is human prostate-derived cancer cells, and MEF cell line, which is mouse embryonic fibroblasts, were treated with Example 14 (Compound A). […]

BRD3 = assay: as above; format: cell-based, human, mouse; details: HEK293T, LNcap and MEF cell lines, 24 hours
Description: as §1, §2, §3, §4

BRD2 = assay: as above; format: cell-based, human, mouse; details: HEK293T, LNcap and MEF cell lines, 24 hours
Description: as §1, §2, §3, §4

PDE4 = assay: as above; format: cell-based, human; details: HEK293T, 24 hours
Description: as §1, §2, §3
(§5) In this case, HEK293T, which is human kidney-derived cancer cells, LNcap, which is human prostate-derived cancer cells, and MEF cell line, which is mouse embryonic fibroblasts, were treated with Example 14 (Compound A). HEK293T, which is human kidney-derived cancer cells, was treated with Example 15 (Compound B). HEK293T cell line, which is human kidney-derived cancer cells, and HeLa cell line, which is cervical-derived cancer cells, were treated with Example 16 (Compound C). HEK293T cell line, which is human kidney-derived cancer cells, was treated with Example 17 (Compound D). K562 cell line, which is human blood-derived cells, was treated with Example 18 (Compound E). HEK293T cell line, which is human kidney-derived cancer cells, was treated with Example 19 (Compound F). THP-1 cell line, which is human blood-derived cells, was treated with Example 20 (Compound G). A549 cell line, which is human lung-derived cancer cells, was treated with Example 21 (Compound H). A549 cell line, which is human lung-derived cancer cells, was treated with Example 22 (Compound I). MCF7 cell line, which is human breast-derived cancer cells, was treated with Example 23 (Compound J). HEK293T cell line, which is […], was treated with Example 24 (Compound L). SH-SY5Y, which is human neuroblastoma, and HeLa cell line, which is cervical-derived cancer cells, were treated with Example 25 (Compound M). THP-1 cell line, which is human blood-derived cells, was treated with Example 26 (Compound P). SH-SY5Y, which is human neuroblastoma, and HeLa cell line, which is cervical-derived cancer cells, were treated with Example 27 (Compound Q). SH-SY5Y, which is human neuroblastoma, and HeLa cell line, which is cervical-derived cancer cells, were treated with Example 28 (Compound R). HeLa cell line, a human cervical-derived cancer cell, was treated with Example 29 (Compound S). SH-SY5Y cell line, which is human neuroblastoma, was treated with Example 30 (Compound T). SH-SY5Y cell line, which is human neuroblastoma, was treated with Example 31 (Compound U). PANC-1 cell line, which is human pancreatic-derived cancer cells, was treated with Example 32 (Compound V). […]

ACVR1 = molecular target: T1, ACVR1 (Homo sapiens, UniProt Q04771); assay: as above; format: cell-based; details: HEK293T and HeLa cell lines, 24 hours
T1 construct: as cell lines primarily expressing the target protein; endogenous in cells; host or cells: HEK293T, HeLa
Description: as §1, §2, §3, §5

Chk1 = molecular target: T2, Chk1 (Homo sapiens, UniProt O14757); assay: as above; format: cell-based; details: HEK293T cell line, 24 hours
T2 construct: as cell lines primarily expressing the target protein; endogenous in cells; host or cells: HEK293T
Description: as §1, §2, §3, §5

BCR-Abl = molecular target: T3, BCR-Abl (Homo sapiens, UniProt P00519); assay: as above; format: cell-based; details: K562 cell line, 24 hours
T3 construct: BCR (N-terminal fusion partner, P11274); endogenous in cells; host or cells: K562; the other entry of the earlier key: BCR (P11274, Breakpoint cluster region protein)
Description: as §1, §2, §3, §5

c-Abl = molecular target: T4, c-Abl (Homo sapiens, UniProt P00519); assay: as above; format: cell-based; details: K562 cell line, 24 hours
T4 construct: as cell lines primarily expressing the target protein; endogenous in cells; host or cells: K562
Description: as §1, §2, §3, §5

CK2 = assay: as above; format: cell-based, human; details: HEK293T cell line, 24 hours
Description: as §1, §2, §3, §5

ERα = molecular target: T5, ERα (Homo sapiens, UniProt P03372); assay: as above; format: cell-based; details: MCF7 cell line, 24 hours
T5 construct: as cell lines primarily expressing the target protein; endogenous in cells; host or cells: MCF7
Description: as §1, §2, §3, §5

Tau = assay: as above; format: cell-based, human; details: SH-SY5Y cell line, 24 hours
Description: as §1, §2, §3, §5

[1] = test system: p62 and each target protein; assay: p62-mediated delivery of target proteins to autophagy by immunofluorescence staining and confocal microscopy; format: cell-based; details: cells cultured 24 hours with compound
Description: In order to confirm the efficacy of P62-mediated delivery of target proteins to autophagy after treatment with the example compounds of the disclosure, immunofluorescence staining was performed by using p62 and each target protein as markers. The cover glass was placed on a 24-well plate for immunofluorescence staining, cell lines primarily expressing the target protein or gene recombinant cell lines were cultured. The cells were dispensed and cultured 24 hours, and then treated with Example 1 (ATCRET-1104), Example 5 (Anle138b F105), Example 7 (Vinclozolin 2204), Example 8 (PHTPP 1304), Example 9 (Baicalein 2204), Example 10 (Resveratrol 1105), Example Example 11 (BTA-1 1104), Example 30 (Compound T) according to the disclosure, respectively. The cells were further cultured for 24 hours for the action of the compounds, the medium was removed, and the cells were fixed using formaldehyde at room temperature. In order to prevent non-specific staining, the cells were reacted with the blocking solution at room temperature for 1 hour, and then the p62 antibody and target protein antibody diluted at a certain ratio were treated using the block solution, and then reacted at room temperature for 1 hour. […]

p-53 = molecular target: T6, p-53 (Homo sapiens, UniProt P04637, R273H); assay: target protein degradation by immunoblotting (Experimental Example 6); format: cell-based; details: PANC-1 cell line, 24 hours
T6 construct: endogenous in cells; host or cells: PANC-1
Description: as §1, §2, §3, §5

T5 sequence (P03372 whole entry): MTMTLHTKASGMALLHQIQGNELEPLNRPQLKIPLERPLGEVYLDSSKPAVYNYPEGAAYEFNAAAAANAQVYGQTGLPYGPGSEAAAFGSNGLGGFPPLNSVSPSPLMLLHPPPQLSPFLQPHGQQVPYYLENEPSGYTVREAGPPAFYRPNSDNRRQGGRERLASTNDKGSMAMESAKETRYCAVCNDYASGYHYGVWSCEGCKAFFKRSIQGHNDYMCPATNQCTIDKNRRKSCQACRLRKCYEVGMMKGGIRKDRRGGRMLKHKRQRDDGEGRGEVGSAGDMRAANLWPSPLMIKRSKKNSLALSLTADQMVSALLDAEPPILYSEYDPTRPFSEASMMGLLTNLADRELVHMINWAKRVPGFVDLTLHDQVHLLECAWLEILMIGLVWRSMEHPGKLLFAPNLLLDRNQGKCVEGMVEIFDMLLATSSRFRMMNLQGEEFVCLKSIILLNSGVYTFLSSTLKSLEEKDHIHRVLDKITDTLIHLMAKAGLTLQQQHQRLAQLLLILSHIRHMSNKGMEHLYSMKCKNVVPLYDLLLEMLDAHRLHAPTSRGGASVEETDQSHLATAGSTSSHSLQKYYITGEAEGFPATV
T2 sequence (O14757 whole entry): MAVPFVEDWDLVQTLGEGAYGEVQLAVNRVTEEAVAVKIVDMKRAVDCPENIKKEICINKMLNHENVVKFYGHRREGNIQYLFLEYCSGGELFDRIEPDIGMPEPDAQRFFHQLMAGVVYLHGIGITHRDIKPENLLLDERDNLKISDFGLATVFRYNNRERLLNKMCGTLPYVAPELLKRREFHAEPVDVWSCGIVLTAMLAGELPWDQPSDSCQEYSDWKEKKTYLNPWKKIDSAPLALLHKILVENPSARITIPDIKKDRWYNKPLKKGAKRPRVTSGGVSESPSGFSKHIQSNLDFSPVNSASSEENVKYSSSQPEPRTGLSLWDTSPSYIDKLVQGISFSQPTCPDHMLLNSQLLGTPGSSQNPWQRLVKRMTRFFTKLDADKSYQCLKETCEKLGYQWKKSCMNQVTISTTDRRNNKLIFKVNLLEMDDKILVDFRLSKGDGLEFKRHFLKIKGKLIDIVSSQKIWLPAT
T1 sequence (Q04771 21-509): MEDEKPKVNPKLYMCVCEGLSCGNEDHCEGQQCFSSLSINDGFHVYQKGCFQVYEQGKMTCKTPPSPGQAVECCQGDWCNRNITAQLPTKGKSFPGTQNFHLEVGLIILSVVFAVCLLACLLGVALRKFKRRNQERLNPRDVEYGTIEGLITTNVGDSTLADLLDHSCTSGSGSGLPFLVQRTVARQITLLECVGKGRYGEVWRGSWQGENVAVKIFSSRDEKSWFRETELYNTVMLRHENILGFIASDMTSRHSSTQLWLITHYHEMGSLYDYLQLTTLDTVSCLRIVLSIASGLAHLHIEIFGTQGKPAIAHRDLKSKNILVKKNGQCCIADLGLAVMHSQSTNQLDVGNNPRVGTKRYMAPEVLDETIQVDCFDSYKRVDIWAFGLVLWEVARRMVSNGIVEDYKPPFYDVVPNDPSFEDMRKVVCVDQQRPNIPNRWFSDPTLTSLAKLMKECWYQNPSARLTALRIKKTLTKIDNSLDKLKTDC

Compound: Cc1sc2c(c1C)C(c1ccc(Cl)cc1)=N[C@@H](CC(=O)NCCOCCOCCNC[C@@H](O)COc1ccc(OCc3ccccc3)c(OCc3ccccc3)c1)c1nnc(C)n1-2 [Example 14, N-(2-(2-(2-(((R)-3-(3,4-bis(benzyloxy)phenoxy)-2-hydroxypropyl)amino)ethoxy)ethoxy)ethyl)-2-((S)-4-(4-chlorophenyl)-2,3,9-trimethyl-6H-thieno[3,2-f][1,2,4]triazolo[4,3-a][1,4]diazepin-6-yl)acetamide]
- degradation of target protein BRD4 (decrease in level vs Control) (BRD4): can be degraded
- degradation of target protein BRD3 (decrease in level vs Control) (BRD3): can be degraded
- degradation of target protein BRD2 (decrease in level vs Control) (BRD2): can be degraded

Compound: COc1ccc([C@]2(C#N)CC[C@@H](C(=O)NCCOCCOCCNCc3ccc(OCc4ccccc4)c(OCc4ccccc4)c3)CC2)cc1OC1CCCC1 [Example 15, (1s,4s)-N-(2-(2-(2-((3,4-bis(benzyloxy)benzyl)amino)ethoxy)ethoxy)ethyl)-4-cyano-4-(3-(cyclopentyloxy)-4-methoxyphenyl)cyclohexane-1-carboxamide]
- degradation of target protein PDE4 (decrease in level vs Control) (PDE4): can be degraded

- degradation of target protein ACVR1 (decrease in level vs Control) (ACVR1): can be degraded
Compound: O[C@H](CNCCOCCOCCN1CCN(c2ccc(-c3cnc4c(-c5cccc6ncccc56)cnn4c3)cc2)CC1)COc1cccc(OCCc2ccccc2)c1 [Example 16, (R)-1-(3-phenethoxyphenoxy)-3-((2-(2-(2-(4-(4-(3-(quinolin-5-yl)pyrazolo[1,5-a]pyrimidin-6-yl)phenyl)piperazin-1-yl)ethoxy)ethoxy)ethyl)amino)propan-2-ol]

- degradation of target protein Chk1 (decrease in level vs Control) (Chk1): can be degraded
Compound: NC(=O)Nc1cc(-c2cccc(F)c2)sc1C(=O)N[C@H]1CCCN(CCOCCOCCNC[C@@H](O)COc2cccc(OCCc3ccccc3)c2)C1 [Example 17, 5-(3-fluorophenyl)-N—((S)-1-(2-(2-(2-(((R)-2-hydroxy-3-(3-phenethoxyphenoxy)propyl)amino)ethoxy)ethoxy)ethyl)piperidin-3-yl)-3-ureidothiophene-2-carboxamide]

- degradation of target protein BCR-Abl (decrease in level vs Control) (BCR-Abl): can be degraded
- degradation of target protein c-Abl (decrease in level vs Control) (c-Abl): can be degraded
Compound: Cc1nc(Nc2ncc(C(=O)Nc3c(C)cccc3Cl)s2)cc(N2CCN(CCNCCOCCOCCNC[C@@H](O)COc3ccc(OCc4ccccc4)c(OCCCc4ccccc4)c3)CC2)n1 [Example 18, (R)-2-((6-(4-(15-(4-(benzyloxy)-3-(3-phenylpropoxy)phenoxy)-14-hydroxy-6,9-dioxa-3,12-diazapentadecyl)piperazin-1-yl)-2-methylpyrimidin-4-yl)amino)-N-(2-chloro-6-methylphenyl)thiazole-5-carboxamide]

Compound: O=C(O)c1ccc2c(c1)nc(Nc1cccc(NCCOCCOCCNC[C@@H](O)COc3ccc(OCc4ccccc4)c(OCCc4ccccc4)c3)c1)c1ccncc12 [Example 19, (R)-5-((3-((2-(2-(2-((3-(4-(benzyloxy)-3-phenethoxyphenoxy)-2-hydroxypropyl)amino)ethoxy)ethoxy)ethyl)amino)phenyl)amino)benzo[c][2,6]naphthyridine-8-carboxylic acid]
- degradation of target protein CK2 (decrease in level vs Control) (CK2): can be degraded

- degradation of target protein ERα (decrease in level vs Control) (ERα): can be degraded
Compound: CCN(CCCCNCCOCCOCCNCc1ccc(OCc2ccccc2)c(OCc2ccccc2)c1)CCOc1ccc(C(=O)c2c(-c3ccc(O)cc3)sc3cc(O)ccc23)cc1 [Example 23, (4-((1-(3,4-bis(benzyloxy)phenyl)-16-ethyl-5,8-dioxa-2,11,16-triazaoctadecan-18-yl)oxy)phenyl) (6-hydroxy-2-(4-hydroxyphenyl)benzo[b]thiophen-3-yl)methanone]

Compound: O=C(CCCc1ccccc1)NCCOCCOCCOCCNC[C@@H](O)COc1cccc(OCc2ccc(F)cc2)c1 [Example 30, (R)—N-(15-(3-((4-fluorobenzyl)oxy)phenoxy)-14-hydroxy-3,6,9-trioxa-12-azapentadecyl)-4-phenylbutanamide]
- degradation of target protein Tau (decrease in level vs Control) (Tau): can be degraded
- intracellular puncta formation of p62 proteins and of target proteins, and local co-existence thereof [1]: increase gradually

Compound: CN(CCOCCOCCOCCNC[C@@H](O)COc1ccc(OCc2ccc(F)cc2)c(OCc2ccc(F)cc2)c1)c1ccc2nc3ccc(=[N+](C)C)cc-3sc2c1 [Example 32, (R)—N-(7-((15-(3,4-bis((4-fluorobenzyl)oxy)phenoxy)-14-hydroxy-3,6,9-trioxa-12-azapentadecyl) (methyl)amino)-3H-phenothiazin-3-ylidene)-N-methylmethanaminium 2,2,2-trifluoroacetate]
- degradation of target protein p-53 (decrease in level vs Control) (p-53): can be degraded

Compound: CN(CCOCCOCCOCCNC[C@@H](O)COc1cccc(OCc2ccc(F)cc2)c1)c1ccc2nc3ccc(=[N+](C)C)cc-3sc2c1.O=C([O-])C(F)(F)F [Example 33, (R)—N-(7-((15-(3-((4-fluorobenzyl)oxy)phenoxy)-14-hydroxy-3,6,9-trioxa-12-azapentadecyl) (methyl)amino)-3H-phenothiazin-3-ylidene)-N-methylmethanaminium 2,2,2-trifluoroacetate]
- degradation of target protein p-53 (decrease in level vs Control) (p-53): can be degraded
